Values belong to the molecule of their own block, whether it stands above or below them.
Target: T1, TIGIT/CD155 complex (Homo sapiens, UniProt Q495A1)
T1 construct: purchased 63ADK000CB07PEG
T1 sequence (Q495A1 22-141 limits assumed): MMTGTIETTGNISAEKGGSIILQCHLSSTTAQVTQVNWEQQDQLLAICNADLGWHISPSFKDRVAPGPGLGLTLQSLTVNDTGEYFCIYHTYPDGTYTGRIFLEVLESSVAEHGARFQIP
Assay: HTRF TIGIT/CD155 binding assay (blocking of TIGIT/CD155 complex)
Conditions: for IC50: read-out: IC50, protein-protein blocking activity for TIGIT/CD155 complex; for TIGIT binding effects compared with compound 1: derivatives with side chains R1, R2, R3 modified
Description: Thus, the most enriched library molecule was found in the TIGIT screening and marked as potential ligand 1 (highlighted red in Figure 2A), whereas it was not observed in the bead-only control (Supplementary Figure S1B). The hit compound 1 was re-synthesized by “off-DNA” (the structure is shown in Figure 2B), and corresponding binding affinity was tested utilizing homogeneous time-resolved fluorescence (HTRF) technology.
For all compounds, the binding affinities were measured with TIGIT/CD155 Binding Assay (Immuno-Oncology, Part # 63ADK000CB07PEG) following the standard kit protocol.

Compound: COc1ccc(C(NC(=O)C(Cc2ccsc2)NC(=O)C(C)c2ccc3cc(OC)ccc3c2)c2ccc(OCC(=O)O)cc2)c(OC)c1 (stereo not shown) [Compound 1]
IC50: 20.7 µM

Compound: COc1ccc(C(NC(=O)[C@H](Cc2ccsc2)NC(=O)c2ccc3cc(OC)ccc3c2)c2ccc(OCC(=O)O)cc2)c(OC)c1 (stereo partly shown) [Compound a6]
TIGIT binding effects compared with compound 1: improved

Compound: COc1ccc(C(NC(=O)[C@H](Cc2ccsc2)NC(=O)/C=C/c2ccc3cc(OC)ccc3c2)c2ccc(OCC(=O)O)cc2)c(OC)c1 (stereo partly shown) [Compound a7]
binding affinity rank among derivatives: highest binding affinity
TIGIT binding effects compared with compound 1: improved
IC50: 3.9 µM

Compound: COc1ccc(C(NC(=O)[C@H](Cc2csc3ccccc23)NC(=O)[C@@H](C)c2ccc3cc(OC)ccc3c2)c2ccc(OCC(=O)O)cc2)c(OC)c1 (stereo partly shown) [Compound a16]
TIGIT binding effects compared with compound 1: improved

Results, then the molecule that gave them:

TIGIT binding effects compared with compound 1: improved
Compound: COc1ccc(C(NC(=O)[C@H](Cc2ccccc2)NC(=O)[C@@H](C)c2ccc3cc(OC)ccc3c2)c2ccc(OCC(=O)O)cc2)c(OC)c1 (stereo partly shown) [Compound a17]

TIGIT binding effects compared with compound 1: improved
Compound: COc1ccc(C(NC(=O)[C@H](Cc2ccc(F)cc2)NC(=O)[C@@H](C)c2ccc3cc(OC)ccc3c2)c2ccc(OCC(=O)O)cc2)c(OC)c1 (stereo partly shown) [Compound a18]

TIGIT binding effects compared with compound 1: improved
Compound: COc1ccc(C(NC(=O)[C@H](Cc2cccc(C#N)c2)NC(=O)[C@@H](C)c2ccc3cc(OC)ccc3c2)c2ccc(OCC(=O)O)cc2)c(OC)c1 (stereo partly shown) [Compound a19]

TIGIT binding effects compared with compound 1: improved
Compound: COc1ccc2cc([C@H](C)C(=O)N[C@@H](Cc3csc4ccccc34)C(=O)NCc3ccc(OCC(=O)O)cc3)ccc2c1 [Compound a27]
